Test results as given in patent US20260083851A1 (AVILAR THERAPEUTICS, INC., priority 2022, published 2026).

The molecules below were run against T1, ASGP receptor (biotinylated ASGPR) (Homo sapiens, UniProt P07306). Settings: SPR, Biacore 8K, 25° C.; Table 1A; read-out: ASGPR KD.
T1 construct: biotin (biotinylated)
T1 sequence (P07306 1-291): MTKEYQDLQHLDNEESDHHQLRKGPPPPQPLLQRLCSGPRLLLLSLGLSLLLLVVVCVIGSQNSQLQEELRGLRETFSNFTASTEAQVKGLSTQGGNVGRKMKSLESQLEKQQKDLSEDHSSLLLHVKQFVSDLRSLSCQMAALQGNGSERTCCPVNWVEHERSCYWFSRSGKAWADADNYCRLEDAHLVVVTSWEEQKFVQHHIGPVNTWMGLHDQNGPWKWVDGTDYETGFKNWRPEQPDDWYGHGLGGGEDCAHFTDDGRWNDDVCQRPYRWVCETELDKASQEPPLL
Type: binding

Kd | Structure (SMILES)
< 10 µM | O=C(NC[C@H]1OC[C@H](Nc2cncc(C(F)(F)F)n2)[C@@H](O)[C@H]1O)c1cnc(-c2ccccc2)nc1 [A89]
< 10 µM | O=C(NC[C@H]1OC[C@H](Nc2cncc(C(F)(F)F)n2)[C@@H](O)[C@H]1O)c1ncc(-c2ccccc2)cn1 [A75, N-(((2R,3R,4R,5S)-3,4-dihydroxy-5-((6-(trifluoromethyl)pyrazin-2-yl)amino)tetrahydro-2H-pyran-2-yl)methyl)-5-phenylpyrimidine-2-carboxamide]
< 10 µM | O=C(NC[C@H]1OC[C@H](Nc2cncc(C(F)(F)F)n2)[C@@H](O)[C@H]1O)c1ccc2c(c1)CCNC2 [A3, N-(((2R,3R,4R,5S)-3,4-dihydroxy-5-((6-(trifluoromethyl)pyrazin-2-yl)amino)tetrahydro-2H-pyran-2-yl)methyl)-1,2,3,4-tetrahydroisoquinoline-6-carboxamide]
< 10 µM | O[C@@H]1[C@H](O)[C@@H](Nc2cncc(C(F)(F)F)n2)CO[C@@H]1CNc1ncccn1 [A19, (2R,3R,4R,5S)-2-((pyrimidin-2-ylamino)methyl)-5-((6-(trifluoromethyl)pyrazin-2-yl)amino)tetrahydro-2H-pyran-3,4-diol]
< 10 µM | O[C@@H]1[C@H](O)[C@@H](Nc2cncc(C(F)(F)F)n2)CO[C@@H]1CNc1cccnc1 [A28, (2R,3R,4R,5S)-2-((pyridin-3-ylamino)methyl)-5-((6-(trifluoromethyl)pyrazin-2-yl)amino)tetrahydro-2H-pyran-3,4-diol]
< 10 µM | NCCOCCOCCOC[C@H]1OC[C@H](Nc2cncc(C(F)(F)F)n2)[C@@H](O)[C@H]1O [A53, (2R,3R,4R,5S)-2-((2-(2-(2-aminoethoxy)ethoxy)ethoxy)methyl)-5-((6-(trifluoromethyl)pyrazin-2-yl)amino)tetrahydro-2H-pyran-3,4-diol]
< 10 µM | O[C@@H]1[C@H](O)[C@@H](Nc2cncc(C(F)(F)F)n2)CO[C@@H]1CNc1cccnn1 [A37, (2R,3R,4R,5S)-2-((pyridazin-3-ylamino)methyl)-5-((6-(trifluoromethyl)pyrazin-2-yl)amino)tetrahydro-2H-pyran-3,4-diol]
< 10 µM | O=C(O)c1ccc(S(=O)(=O)NC[C@H]2OC[C@H](Nc3cncc(C(F)(F)F)n3)[C@@H](O)[C@H]2O)cc1 [A111, 4-(N-(((2R,3R,4R,5S)-3,4-dihydroxy-5-((6-(trifluoromethyl)pyrazin-2-yl)amino)tetrahydro-2H-pyran-2-yl)methyl)sulfamoyl)benzoic acid]
< 10 µM | O=C(O)COCCOCCOCC(=O)NC[C@H]1OC[C@H](Nc2cncc(C(F)(F)F)n2)[C@@H](O)[C@H]1O [A33]

The next lines start with the molecule.

Structure (SMILES) | Kd
O=C(O)COCCOCC(=O)NC[C@H]1OC[C@H](Nc2nc(C(F)(F)F)ccc2F)[C@@H](O)[C@H]1O [A110, 2-(2-(2-((((2R,3R,4R,5S)-5-((3-fluoro-6-(trifluoromethyl)pyridin-2-yl)amino) 3,4-dihydroxytetrahydro-2H-pyran-2-yl)methyl)amino)-2-oxoethoxy)ethoxy)acetic acid] | < 10 µM
OC[C@H]1O[C@H](c2ccccc2)[C@H](Nc2nccc(C(F)(F)F)n2)[C@@H](O)[C@H]1O [A96, (2R,3R,4R,5R,6R)-2-(hydroxymethyl)-6-phenyl-5-((4-(trifluoromethyl)pyrimidin-2-yl)amino)tetrahydro-2H-pyran-3,4-diol] | < 10 µM
CC(=O)N1C[C@H](Nc2cncc(C(F)(F)F)n2)[C@@H](O)[C@@H](O)C1 [A102, 1-((3S,4R,5S)-3,4-dihydroxy-5-((6-(trifluoromethyl)pyrazin-2-yl)amino)piperidin-1-yl)ethan-1-one] | < 10 µM

Same assay, conditions: SPR, Biacore 8K, 25° C.; Table 1B; read-out: ASGPR Kd

Kd | Structure (SMILES)
< 10 µM | O[C@@H]1[C@H](O)[C@@H](Nc2cccc(OC(F)(F)F)n2)CO[C@@H]1COc1cccc(OC(F)(F)F)n1 [A144, (2R,3R,4R,5S)-5-((6-(trifluoromethoxy)pyridin-2-yl)amino)-2-(((6-(trifluoromethoxy)pyridin-2-yl)oxy)methyl) tetrahydro-2H-pyran-3,4-diol]
< 10 µM | COc1cc(N[C@H]2CO[C@H](CO)[C@H](O)[C@@H]2O)nc(C(F)(F)F)c1 [A151, (2R,3R,4R,5S)-2-(hydroxymethyl)-5-((4-methoxy-6-(trifluoromethyl)pyridin-2-yl)amino)tetrahydro-2H-pyran-3,4-diol]
< 10 µM | NCc1ccc(N2CCC(CN3CCN(C[C@H]4OC[C@H](Nc5cncc(C(F)(F)F)n5)[C@@H](O)[C@H]4O)CC3)CC2)cc1 [A165, (2R,3R,4R,5S)-2-((4-((1-(4-(aminomethyl)phenyl)piperidin-4-yl)methyl)piperazin-1-yl)methyl)-5-((6-(trifluoromethyl)pyrazin-2-yl)amino)tetrahydro-2H-pyran-3,4-diol]

Same assay, conditions: SPR, Biacore 8K, 25° C.; Table 1C; read-out: ASGPR KD

Kd | Structure (SMILES)
< 10 µM | O=C(O)c1ccc(OC[C@H]2OC[C@H](Nc3cccc(C(F)(F)F)n3)[C@@H](O)[C@H]2O)nn1 [A317]
< 10 µM | CC(C)(C)OC(=O)N1CCC(Cc2ccc(OC[C@H]3OC[C@H](Oc4cccc(C(F)(F)F)n4)[C@@H](O)[C@H]3O)nn2)C1 (some centres unmarked) [A294]
< 10 µM | COC(=O)c1ccc(OC[C@H]2O[C@H](C)[C@H](O)[C@H](O)[C@H]2Oc2cccc(C(F)(F)F)n2)nn1 [A315]
< 10 µM | O[C@@H]1[C@H](O)[C@@H](Nc2cncc(C(F)(F)F)n2)CO[C@@H]1c1cn(C2CCNCC2)nn1 [A200, (2R,3R,4R,5S)-2-(1-(piperidin-4-yl)-1H-1,2,3-triazol-4-yl)-5-((6-(trifluoromethyl)pyrazin-2-yl)amino)tetrahydro-2H-pyran-3,4-diol]
< 10 µM | O=C(O)c1ccc(OC[C@H]2OC[C@H](Nc3cncc(C(F)(F)F)n3)[C@@H](O)[C@H]2O)nn1 [A186, 6-(((2R,3R,4R,5S)-3,4-dihydroxy-5-((6-(trifluoromethyl)pyrazin-2-yl)amino)tetrahydro-2H-pyran-2-yl)methoxy)pyridazine-3-carboxylic acid]
< 10 µM | O[C@@H]1[C@H](O)[C@@H](Nc2cncc(C(F)(F)F)n2)CO[C@@H]1Cc1nnc(-c2ccccc2)o1 [A209, (2R,3R,4R,5S)-2-((5-phenyl-1,3,4-oxadiazol-2-yl)methyl)-5-((6-(trifluoromethyl)pyrazin-2-yl)amino)tetrahydro-2H-pyran-3,4-diol]

The next lines start with the molecule.

Structure (SMILES) | Kd
O[C@@H]1[C@H](O)[C@@H](Oc2cccc(C(F)(F)F)n2)CO[C@@H]1CN1CCN(c2ccc(Br)nn2)CC1 [A257] | < 10 µM
O=C1CCCN1C[C@H]1OC[C@H](Oc2cccc(C(F)(F)F)n2)[C@@H](O)[C@H]1O [A258] | < 10 µM
OC[C@H]1O[C@H](c2ccc(N3CCNCC3)cc2)[C@H](Oc2cccc(C(F)(F)F)n2)[C@@H](O)[C@H]1O [A250] | < 10 µM
C[C@H]1O[C@H](c2ccc3c(c2)CNC3)[C@H](Oc2cccc(C(F)(F)F)n2)[C@@H](O)[C@H]1O [A341] | < 10 µM
OC[C@H]1O[C@H](c2ccccc2)[C@H](Oc2cccc(C(F)(F)F)n2)[C@@H](O)[C@H]1O [A329] | < 10 µM
CN1CC2CN(C[C@H]3OC[C@H](Oc4cccc(C(F)(F)F)n4)[C@@H](O)[C@H]3O)CCN2C1=O (some centres unmarked) [A302] | < 10 µM
C#C[C@H]1O[C@H](C)[C@H](O)[C@H](O)[C@H]1Oc1cccc(C(F)(F)F)n1 [A214, (2R,3R,4S,5R,6R)-6-ethynyl-2-methyl-5-((6-(trifluoromethyl)pyridin-2-yl)oxy)tetrahydro-2H-pyran-3,4-diol] | < 10 µM
CC(C)(C)OC(=O)N1CCN(c2ccc(OC[C@H]3OC[C@H](Oc4cccc(C(F)(F)F)n4)[C@@H](O)[C@H]3O)cc2F)CC1 [A213, tert-butyl 4-(4-(((2R,3R,4S,5S)-3,4-dihydroxy-5-((6-(trifluoromethyl)pyridin-2-yl)oxy)tetrahydro-2H-pyran-2-yl)methoxy)-2-fluorophenyl) piperazine-1-carboxylate] | < 10 µM

Same assay, conditions: SPR, Biacore 8K, 25° C.; Table 1D, numeric bound; read-out: ASGPR KD

Kd | Structure (SMILES)
> 30 µM | O=C(OCc1ccccc1)N1C[C@H](Nc2ccc(C(F)(F)F)cn2)[C@@H](O)[C@@H](O)C1 [A374]

Same assay, conditions: SPR, Biacore 8K, 25° C.; Table 1D; read-out: ASGPR KD

Kd | Structure (SMILES)
< 10 µM | OCC1CCN(c2ccc(N3C[C@H](Nc4cncc(C(F)(F)F)n4)[C@@H](O)[C@@H](O)C3)nn2)CC1 [A394]
10 to 100 µM | C#CCOc1nc(N[C@H]2CO[C@H](CO)[C@H](O)[C@@H]2O)cc(C(F)(F)F)n1 [A402]
< 10 µM | O[C@@H]1[C@H](O)[C@@H](Nc2cncc(C(F)(F)F)n2)CO[C@@H]1COc1ccc(C2CNC2)nn1 [A420]
< 10 µM | O[C@@H]1[C@@H](Nc2cncc(C(F)(F)F)n2)CN(c2ccccc2)C[C@@H]1O [A393]
< 10 µM | O[C@@H]1[C@@H](Nc2cncc(C(F)(F)F)n2)CN(Cc2ccccc2)C[C@@H]1O [A373]

The next lines start with the molecule.

Structure (SMILES) | Kd
O=C(O)COCCOCC(=O)C1C[C@H](Nc2cncc(C(F)(F)F)n2)[C@@H](O)[C@@H](O)C1 (some centres unmarked) [A381] | < 10 µM
O[C@@H]1[C@@H](Oc2cccc(C(F)(F)F)n2)CN(c2ccncn2)C[C@@H]1O [Compound A248] | < 10 µM

Same assay, conditions: SPR, Biacore 8K, 25° C.; Table 1E, numeric bound; read-out: ASGPR KD

Kd | Structure (SMILES)
> 30 µM | C[C@H]1O[C@H](CO)[C@H](Oc2cncc(C(F)(F)F)n2)[C@@H](O)[C@H]1O [A436]

Same assay, conditions: SPR, Biacore 8K, 25° C.; Table 1E; read-out: ASGPR KD

Kd | Structure (SMILES)
< 10 µM | C[C@H]1O[C@H](C(C)(C)O)[C@H](Oc2cccc(C(F)(F)F)n2)[C@@H](O)[C@H]1O [A433]
10 to 100 µM | C[C@H]1O[C@H](CO)[C@H](Oc2nccc(C(F)(F)F)n2)[C@@H](O)[C@H]1O [A437]
< 10 µM | C[C@H]1O[C@H](C(N)=O)[C@H](Oc2cccc(C(F)(F)F)n2)[C@@H](O)[C@H]1O [A431]
